We go through four molecules from patent US12692477B2, “Medium composition for culturing porcine pluripotent stem cells” (SPACE F CORP., priority 2018, dated 2026).

Assay [1] has as its system porcine pluripotent stem cells. Nature of the assay: Influence of growth factor concentration in porcine pluripotent stem cell culture medium. Format: cell-based. Particulars: for Optimal concentration / optimal concentration: in culture medium. The protocol:
The influence of a growth factor concentration in a porcine pluripotent stem cell culture medium established in the above-described example was analyzed, and the results are shown in Table 10. When the concentration of growth factors was low, the growth of stem cells was reduced, and when the concentration of growth factor was high, except for bFGF, cells were killed. The allowable concentration of the bFGF was 3.03×10^−4 to 6.06×10^−3 μM, and the optimal concentration was 1.21×10^−3 μM. The allowable concentration of the Activin A was 1.50×10^−4 to 5.40×10^−4 μM, and the optimal concentration was 3.85×10^−4 μM. The allowable concentration of the CHIR99021 was 0.5 to 2.50 μM, and the optimal concentration was 1.50 μM. The allowable concentration of the IWR-1 was 1.20 to 3.00 μM, and the optimal concentration was 2.50 μM.

Assay [2] concerns porcine blastocysts (inner cell mass). Briefly: Culture of porcine blastocysts on feeder cells with signal molecule combinations in serum replacement medium. Format: cell-based. The protocol:
First, a culture medium including KSR, N2/B27, KSR+N2/B27, or KSR+LC was used to find a serum replacement suitable for the growth of porcine embryos. […] As a result, it was confirmed that the inner cell mass expressing SOX2 rapidly grew in the group treated with KSR and KSR+LC (FIG. 1). Second, for long-term culturing of the inner cell mass, signal molecules were treated in various combinations (Table 6 and Table 7).
The culturing was attempted by adding signal molecules to basal medium including KSR or KSR+LC. Porcine embryonic stein cells were established in a culture medium including FGF2, A, and 6-[[2-[[4-(2,4-Dichlorophenyl)-5-(5-methyl-1H-imidazol-2-yl)-2-pyrimidinyl]amino]ethyl]amino]-3-pyridinecarbonitrile (CHIR99021) in a culture solution including serum replacement 4 (Tables 6 and 7, FIG. 2). In addition, for the stabilization of CHIR99021, 4-(1,3,3a,4,7,7a-Hexahydro-1,3-dioxo-4,7-methano-2H-isoindol-2-yl)-N-8-quinolinyl-Benzamide (IWR-1) was added to establish the composition for long-term culturing and maintenance of porcine embryonic stem cells, as shown in Table 8 and Table 9, respectively.

Regarding `Cc1cnc(-c2cnc(NCCNc3ccc(C#N)cn3)nc2-c2ccc(Cl)cc2Cl)[nH]1` [CHIR99021, 6-[[2-[[4-(2,4-Dichlorophenyl)-5-(5-methyl-1H-imidazol-2-yl)-2-pyrimidinyl]amino]ethyl]amino]-3-pyridinecarbonitrile, reference compound], in assay [1], the “Optimal concentration” value was determined as 0.0015 mM and the optimal concentration worked out at 1.50 µM.

Take `O=C(Nc1cccc2cccnc12)c1ccc(N2C(=O)C3C4C=CC(C4)C3C2=O)cc1` (stereo not drawn) [IWR-1, 4-(1,3,3a,4,7,7a-Hexahydro-1,3-dioxo-4,7-methano-2H-isoindol-2-yl)-N-8-quinolinyl-Benzamide, reference compound]: in assay [1], the “Optimal concentration” value amounted to 0.0025 mM and the optimal concentration was determined as 2.50 µM.

With “bFGF: basic fibroblast growth factor, signal molecule in the culture medium”, the “Optimal concentration” value in assay [1] came to 1.21e-06 mM. Besides, the optimal concentration in assay [1] stood at 0.00121 µM. The “Blastocyst initial growth rate (%)” value amounted to 30.0 ± 5.8% in assay [2] (serum replacement 1) and 51.5 ± 4.6% in assay [2] (serum replacement 4). Also, the “Sox2 positive rate of the initial population (%)” value in assay [2] (serum replacement 1) stood at 30.0 ± 5.8%; in assay [2] (serum replacement 4), 44.8 ± 2.9%. Moreover, the “Number of embryonic stem cell lines established in the long-term culture” value in assay [2] (serum replacement 1, 30 blastocysts) came out at 0; in assay [2] (serum replacement 4, 29 blastocysts), 0.

B1: activin A: activin A, signal molecule acting through the SMAD signal transduction system (protein, UniProt P08476 311-426, looked up)
Inhibin beta A chain: GLECDGKVNICCKKQFFVSFKDIGWNDWIIAPSGYHANYCEGECPSHIAGTSGSSLSFHSTVINHYRMRGHSPFANLKSCCVPTKLRPMSMLYYDDGQNIIKKDIQNMIVEECGCS
On to B1, for which, in assay [1], the “Symptoms when exceeding the appropriate concentration” value was “Cell death”, the “Optimal concentration” value turned out to be 3.85e-07 mM and the optimal concentration worked out at 0.000385 µM.
